Data from PMC11257039, “VCP activator reverses nuclear proteostasis defects and enhances TDP-43 aggregate clearance in multisystem proteinopathy models” (The Journal of Clinical Investigation, 2024).
Values joined by “and” are separate entries in the source; they are usually repeats but may differ in a detail not shown here. Equal entries are not always repeated.

What was measured:
recombinant WT VCP [1] = target: T1, recombinant WT VCP (Mus musculus, UniProt Q01853); experiment: Kinase-Glo ATPase assay, recombinant WT VCP; type: biochemical; conditions: for ATP consumed: WT VCP no UN
T1 construct: in the full-length recombinant VCP; His (N); made in house; host or cells: Escherichia coli BL21-CodonPlus (DE3)-RIL
T1 sequence (Q01853 whole entry): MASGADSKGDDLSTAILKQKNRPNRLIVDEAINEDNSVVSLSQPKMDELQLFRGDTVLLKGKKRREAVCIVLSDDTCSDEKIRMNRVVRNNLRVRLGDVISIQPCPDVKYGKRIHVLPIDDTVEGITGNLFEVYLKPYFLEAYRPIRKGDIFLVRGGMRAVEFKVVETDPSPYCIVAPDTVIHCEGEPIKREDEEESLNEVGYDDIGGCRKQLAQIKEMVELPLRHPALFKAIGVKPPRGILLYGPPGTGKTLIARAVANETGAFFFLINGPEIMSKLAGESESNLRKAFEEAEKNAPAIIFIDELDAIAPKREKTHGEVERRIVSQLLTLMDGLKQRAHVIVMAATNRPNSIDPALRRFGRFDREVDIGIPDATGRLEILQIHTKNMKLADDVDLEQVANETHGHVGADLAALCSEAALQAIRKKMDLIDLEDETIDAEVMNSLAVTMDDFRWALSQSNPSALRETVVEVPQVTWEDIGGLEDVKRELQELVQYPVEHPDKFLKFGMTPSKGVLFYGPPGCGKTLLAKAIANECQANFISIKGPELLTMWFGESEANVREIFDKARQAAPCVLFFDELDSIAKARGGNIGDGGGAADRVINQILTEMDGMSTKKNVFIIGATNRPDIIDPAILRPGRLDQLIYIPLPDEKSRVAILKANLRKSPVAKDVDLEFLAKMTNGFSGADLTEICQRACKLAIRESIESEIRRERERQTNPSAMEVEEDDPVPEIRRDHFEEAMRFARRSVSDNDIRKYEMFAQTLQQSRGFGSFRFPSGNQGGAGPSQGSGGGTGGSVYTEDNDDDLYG
Protocol: (§1) Experiments with varied activator concentration and screening were measured using the Kinase-Glo Luminescent Kinase Assay (Promega). Reactions were incubated at 25°C for 1 hour then reduced to 4°C in a thermocycler consisting of 50 nM of recombinant VCP with or without 50 nM UFD1/NPLOC4 in 50 uL ATPase buffer (25 mM HEPES, pH 7.5, 100 mM NaCl, 10 mM MgCl2) at 2% DMSO with 62.5 μM ATP and a range of activator concentrations (Gibco, Sigma-Aldrich). Equal volumes of reaction and Kinase-Glo reagent were incubated for 20 minutes at room temperature in a 96 well white flat bottom plate (Corning). Luminescence was measured in a microplate reader (Spark 20M, Tecan).
(§2) Experiments with varied compound concentration were fit to a 3-parameter dose curve with asymmetric profile likelihood 95% confidence intervals in GraphPad Prism 9 (GraphPad). Experiments with varied ATP concentration were fit to a Michaelis-Menten model with asymmetric profile likelihood 95% confidence intervals. Significance was determined for experiments with fixed compound or fixed ATP concentration using a linear mixed-effects model.

WT VCP + Ufd1/Nploc4 = target: T2, WT VCP + Ufd1/Nploc4 (Mus musculus, UniProt Q01853); experiment: Kinase-Glo ATPase assay, WT VCP with UFD1/NPLOC4 (UN); type: biochemical; conditions: for ATP consumed: WT VCP with UN
T2 construct: in the full-length recombinant VCP; His (N); made in house; host or cells: E. coli (VCP: BL21-CodonPlus (DE3)-RIL; UFD1 and NPLOC4: E. coli (DE3), purified by the MD Anderson core)
T2 sequence (Q01853 whole entry): as above
T2 sequence (Q92890 whole entry partner): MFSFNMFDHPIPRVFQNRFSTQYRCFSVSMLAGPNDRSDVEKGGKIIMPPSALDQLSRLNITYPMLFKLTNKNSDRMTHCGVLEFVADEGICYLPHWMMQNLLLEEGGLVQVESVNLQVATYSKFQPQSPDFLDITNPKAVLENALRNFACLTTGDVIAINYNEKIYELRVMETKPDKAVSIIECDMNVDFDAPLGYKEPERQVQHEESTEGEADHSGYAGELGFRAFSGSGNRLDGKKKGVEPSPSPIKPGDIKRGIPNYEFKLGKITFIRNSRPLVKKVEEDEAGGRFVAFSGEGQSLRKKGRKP
T2 sequence (Q8TAT6 whole entry partner): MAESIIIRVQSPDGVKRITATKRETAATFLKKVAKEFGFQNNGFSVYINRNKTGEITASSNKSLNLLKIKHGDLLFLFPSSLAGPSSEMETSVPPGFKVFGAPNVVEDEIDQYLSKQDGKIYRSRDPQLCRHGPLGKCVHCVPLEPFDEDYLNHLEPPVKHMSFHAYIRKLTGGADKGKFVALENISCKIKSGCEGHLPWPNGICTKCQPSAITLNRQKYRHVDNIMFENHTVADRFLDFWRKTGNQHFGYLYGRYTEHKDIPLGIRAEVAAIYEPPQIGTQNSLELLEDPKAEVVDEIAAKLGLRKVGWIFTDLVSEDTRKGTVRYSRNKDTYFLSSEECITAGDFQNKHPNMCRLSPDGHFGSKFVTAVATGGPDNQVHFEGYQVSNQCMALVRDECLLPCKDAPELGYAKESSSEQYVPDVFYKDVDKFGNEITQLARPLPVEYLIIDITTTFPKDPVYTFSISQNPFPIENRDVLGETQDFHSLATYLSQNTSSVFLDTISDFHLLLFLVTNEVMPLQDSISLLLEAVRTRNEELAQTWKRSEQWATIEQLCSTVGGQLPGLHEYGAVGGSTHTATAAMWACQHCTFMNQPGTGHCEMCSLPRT
Protocol: as §1, §2

recombinant WT VCP [2] = target: T1, recombinant WT VCP; experiment: MESG-PNP (EnzCheck) phosphate release ATPase assay, WT VCP; type: biochemical; conditions: for ATPase activity v0/ET: 25 μM compound, replicate experiments
Protocol: (§3) All other experiments were performed using the EnzCheck phosphatase assay kit (Molecular Probes). ATPase activity was measured in a 96-well flat bottom plate (Thermo Fisher Scientific). 50 nM VCP was incubated in 100 μL ATPase buffer with 2% DMSO with 25 μM compound and various ATP concentrations. The absorbance at 360 ± 5 nm was measured for more than 15 minutes at 25°C. Phosphate release was quantified based on a phosphate standard curve performed on the same plate. Initial enzyme velocity was determined by fitting the linear portion of the data to a linear regression model.
as §2

26S proteasome = 26S proteasome activity, Suc-LLVY-AMC fluorescence; type: biochemical, human; conditions: 25 μM compound, versus 1% DMSO
Protocol: 26S proteasome and substrate suc-LLVY-AMC were purchased (LifeSensors, Inc.). Fluorescence was measured in a microplate reader using a 96-well optical bottom black plate (Thermo Fisher Scientific). […] 26S proteasome was incubated in 100 μL proteasome buffer (20 mM HEPES, pH 7.5, 0.5 mM EDTA, 0.05% Triton-X) with 100 μM suc-LLVY-AMC, 1 mM ATP, and 25 μM compound or 1% DMSO. Fluorescence was measured at excitation 380 ± 10nm and emission 460 ± 10nm for more than 15 minutes at 37°C. Initial velocity was determined by fitting the linear portion of the data to a linear regression model. Significance was determined for using a linear mixed-effects model.

[3] = system: WT HeLa cells expressing GFP-TDP-4FL; experiment: Flow cytometry of GFP-TDP-4FL integrated fluorescence, WT HeLa; type: cell-based; conditions: for Integrated Fluorescence WT (Normalized to CHX): 4 μM MG132 17 h
Protocol: Drug treatments were performed on neurons 7 days after lentiviral transduction and 14 days after neuronal induction. HeLa cells were collected using trypsin and pelleted at 1000g for 3 minutes. Cell pellets were resuspended in colorless DMEM (Invitrogen) supplemented with 2% FBS and filtered through a BD tube with cell strainer (BD Biosciences) for flow cytometry analysis on LSR II (BD Biosciences). Data analysis was performed on FlowJo v10 software. Integrated fluorescence intensity was determined by multiplying percent positive GFP and GFP median fluorescence values.

luciferase = experiment: Luciferase counter assay: Kinase-Glo with 62.5 μM ATP without recombinant VCP; type: biochemical; conditions: for measured ATP consumed (nmol) without VCP: replicate values
Protocol: as §1
(A-D) Measured ATP as determined by a Kinase-Glo assay of 62.5μM ATP in the presence of increasing concentrations of compound without recombinant VCP present. (for all panels: n=3 with 4 technical replicates per experiment, points are expressed as beta ± SE, linear mixed effects model, P>0.05 for each […]
(1 picture or pasted object on this page, not shown here)

A232E VCP = target: T3, A232E VCP (Mus musculus, UniProt Q01853, A232E); experiment: MESG-PNP ATPase assay, recombinant A232E VCP; type: biochemical; conditions: VCP Mutation A232E; replicate values
T3 construct: in the full-length recombinant VCP; His (N); made in house; host or cells: Escherichia coli BL21-CodonPlus (DE3)-RIL
T3 sequence (Q01853 whole entry A232E): as the sequence (Q01853 whole entry) above, with A232E counted along it
Protocol: as §3
(§4) Figure S8. VCP activators variable effect on ATPase activity of MSP associated mutations in recombinant VCP. ATPase activity of 50 nM recombinant VCP protein was measured using an MESG-PNP assay upon treatment with 25 μM compound versus 2% DMSO control at 1mM ATP for WT (also shown in Fig. 5c), A232E, R155H, and R159H (n=3 with 3 technical replicated per experiment; points are expressed as beta ± SE, linear effects model: *P<0.05,**P<0.01; ***P<0.001; ****P<0.0001).

R155H VCP = target: T4, R155H VCP (Mus musculus, UniProt Q01853, R155H); experiment: MESG-PNP ATPase assay, recombinant R155H VCP; type: biochemical; conditions: VCP Mutation R155H; replicate values
T4 construct: in the full-length recombinant VCP; His (N); made in house; host or cells: Escherichia coli BL21-CodonPlus (DE3)-RIL
T4 sequence (Q01853 whole entry R155H): as the sequence (Q01853 whole entry) above, with R155H counted along it
Protocol: as §3, §4

R159H VCP = target: T5, R159H VCP (Mus musculus, UniProt Q01853, R159H); experiment: MESG-PNP ATPase assay, recombinant R159H VCP; type: biochemical; conditions: VCP Mutation R159H; replicate values
T5 construct: in the full-length recombinant VCP; His (N); made in house; host or cells: Escherichia coli BL21-CodonPlus (DE3)-RIL
T5 sequence (Q01853 whole entry R159H): as the sequence (Q01853 whole entry) above, with R159H counted along it
Protocol: as §3, §4

## O=C(CSc1nc2ccccc2c(=O)n1NC(=O)c1ccccc1)c1ccc(Cl)cc1 [UP12]
Recombinant WT VCP [1]; EC50 (μM) (95% CI), WT VCP without UN, 50 nM VCP, 62.5 μM ATP, 2% DMSO
  EC50: 1.57 µM
Recombinant WT VCP [1]; 0.20 μM compound
  ATP consumed: 0.972 nmol and 0.921 nmol and 1.113 nmol
Recombinant WT VCP [1]; 0.39 μM compound
  ATP consumed: 1.046 nmol and 0.999 nmol and 1.126 nmol
Recombinant WT VCP [1]; 0.78 μM compound
  ATP consumed: 1.028 nmol and 1.027 nmol and 1.185 nmol
Recombinant WT VCP [1]; 1.56 μM compound
  ATP consumed: 1.050 nmol and 1.001 nmol and 1.186 nmol
Recombinant WT VCP [1]; 3.13 μM compound
  ATP consumed: 0.987 nmol and 1.173 nmol and 1.366 nmol
Recombinant WT VCP [1]; 6.25 μM compound
  ATP consumed: 1.164 nmol and 1.158 nmol and 1.362 nmol
Recombinant WT VCP [1]; 12.5 μM compound
  ATP consumed: 1.242 nmol and 1.397 nmol and 1.210 nmol
Recombinant WT VCP [1]; 25 μM compound
  ATP consumed: 1.202 nmol and 1.262 nmol and 1.324 nmol
Recombinant WT VCP [1]; in vitro validation of 106 screen hits
  recombinant WT VCP ATPase activity: significantly increased
Recombinant WT VCP [1]; maximum, WT VCP without UN
  increase of VCP activity: 39%
WT VCP + Ufd1/Nploc4
  change in EC50 with UN compared to without UN: non-significant decreases
  change in maximum percent activity with UN compared to without UN: significantly decreased
WT VCP + Ufd1/Nploc4; WT VCP + Ufd1/Nploc4, 1:1 molar ratio
  EC50: 0.648 µM
WT VCP + Ufd1/Nploc4; 0.20 μM compound
  ATP consumed: 1.300 nmol and 1.366 nmol and 1.077 nmol
WT VCP + Ufd1/Nploc4; 0.39 μM compound
  ATP consumed: 1.441 nmol and 1.399 nmol and 1.156 nmol
WT VCP + Ufd1/Nploc4; 0.78 μM compound
  ATP consumed: 1.422 nmol and 1.447 nmol and 1.306 nmol
WT VCP + Ufd1/Nploc4; 1.56 μM compound
  ATP consumed: 1.523 nmol and 1.537 nmol and 1.366 nmol
WT VCP + Ufd1/Nploc4; 3.13 μM compound
  ATP consumed: 1.496 nmol and 1.548 nmol and 1.334 nmol
WT VCP + Ufd1/Nploc4; 6.25 μM compound
  ATP consumed: 1.632 nmol and 1.536 nmol and 1.400 nmol
WT VCP + Ufd1/Nploc4; 12.5 μM compound
  ATP consumed: 1.663 nmol and 1.623 nmol and 1.427 nmol
WT VCP + Ufd1/Nploc4; 25 μM compound
  ATP consumed: 1.544 nmol and 1.491 nmol and 1.364 nmol
Recombinant WT VCP [2]; 25 μM activator
  kcat (nmol Pi / nmol VCP / s) (95% CI): 0.309 (0.269, 0.356) nmol Pi / nmol VCP / s
Recombinant WT VCP [2]; 25 μM activator, versus DMSO
  increase in kcat: about 25%
Recombinant WT VCP [2]; [ATP] 62.5 μM
  ATPase activity v0/ET: 0.164 nmol Pi / nmol VCP / s and 0.127 nmol Pi / nmol VCP / s and 0.154 nmol Pi / nmol VCP / s
Recombinant WT VCP [2]; [ATP] 125 μM
  ATPase activity v0/ET: 0.234 nmol Pi / nmol VCP / s and 0.182 nmol Pi / nmol VCP / s and 0.208 nmol Pi / nmol VCP / s
Recombinant WT VCP [2]; [ATP] 250 μM
  ATPase activity v0/ET: 0.282 nmol Pi / nmol VCP / s and 0.230 nmol Pi / nmol VCP / s and 0.291 nmol Pi / nmol VCP / s
Recombinant WT VCP [2]; [ATP] 500 μM
  ATPase activity v0/ET: 0.289 nmol Pi / nmol VCP / s and 0.232 nmol Pi / nmol VCP / s and 0.265 nmol Pi / nmol VCP / s
Recombinant WT VCP [2]; [ATP] 1000 μM
  ATPase activity v0/ET: 0.320 nmol Pi / nmol VCP / s and 0.260 nmol Pi / nmol VCP / s and 0.293 nmol Pi / nmol VCP / s
26S proteasome
  % activity of 26S proteasome: 94.3% and 79.8% and 83.9% and 107.1% and 92.8% and 109.7%
[3]; then CHX with 5 μM compound 4 h
  Integrated Fluorescence WT (Normalized to CHX): 0.972 and 1.128 and 1.069 and 1.136 and 1.032 and 0.941
[3]; then CHX with 20 μM compound 4 h
  Integrated Fluorescence WT (Normalized to CHX): 0.894 and 0.971 and 1.353 and 0.977 and 0.848 and 0.689
[3]; MG132, then CHX with 5 or 20 μM activator
  clearance of GFP-TDP-4FL aggregates (integrated fluorescence): did not have a significant effect
luciferase; 62.5 μM ATP, increasing concentrations of compound
  luciferase activity (measured ATP without VCP): did not inhibit luciferase activity
luciferase; compound 6.25 μM
  measured ATP consumed (nmol) without VCP: 3.153 nmol and 3.247 nmol and 3.452 nmol and 3.556 nmol and 3.276 nmol and 3.463 nmol and 3.531 nmol and 3.381 nmol and 3.251 nmol and 3.386 nmol and 3.279 nmol and 3.064 nmol
luciferase; compound 12.5 μM
  measured ATP consumed (nmol) without VCP: 3.163 nmol and 3.366 nmol and 3.532 nmol and 3.606 nmol and 3.351 nmol and 3.662 nmol and 3.334 nmol and 3.435 nmol and 3.323 nmol and 3.733 nmol and 3.427 nmol and 3.076 nmol
luciferase; compound 25 μM
  measured ATP consumed (nmol) without VCP: 3.243 nmol and 3.452 nmol and 3.683 nmol and 3.709 nmol and 3.371 nmol and 3.627 nmol and 3.582 nmol and 3.248 nmol and 3.318 nmol and 3.356 nmol and 3.238 nmol and 3.225 nmol
luciferase; compound 50 μM
  measured ATP consumed (nmol) without VCP: 3.199 nmol and 3.663 nmol and 3.673 nmol and 3.419 nmol and 3.053 nmol and 3.725 nmol and 3.509 nmol and 3.086 nmol and 3.588 nmol and 3.442 nmol and 3.634 nmol and 3.113 nmol
luciferase; compound 100 μM
  measured ATP consumed (nmol) without VCP: 3.128 nmol and 3.612 nmol and 3.580 nmol and 3.474 nmol and 3.673 nmol and 3.565 nmol and 3.583 nmol and 2.931 nmol and 3.556 nmol and 3.479 nmol and 3.581 nmol and 3.246 nmol
A232E VCP
  ATPase activity, nmol Pi / nmol VCP / s: 1.130 nmol Pi / nmol VCP / s and 0.838 nmol Pi / nmol VCP / s and 0.963 nmol Pi / nmol VCP / s
R155H VCP
  ATPase activity, nmol Pi / nmol VCP / s: 0.592 nmol Pi / nmol VCP / s and 0.458 nmol Pi / nmol VCP / s and 0.468 nmol Pi / nmol VCP / s
R159H VCP
  ATPase activity, nmol Pi / nmol VCP / s: 0.579 nmol Pi / nmol VCP / s and 0.685 nmol Pi / nmol VCP / s and 0.536 nmol Pi / nmol VCP / s
